Assay results as given in ChEMBL document CHEMBL3414435, “Computer aided drug discovery of highly ligand efficient, low molecular weight imidazopyridine analogs as FLT3 inhibitors” (Eur J Med Chem, 2015).

Key:
[1] = target: Receptor-type tyrosine-protein kinase FLT3 (Homo sapiens) (UniProt P36888); conditions: at 20 µM
[2] = target: T1, Receptor-type tyrosine-protein kinase FLT3 (Homo sapiens, UniProt P36888)
T1 sequence (P36888 whole entry): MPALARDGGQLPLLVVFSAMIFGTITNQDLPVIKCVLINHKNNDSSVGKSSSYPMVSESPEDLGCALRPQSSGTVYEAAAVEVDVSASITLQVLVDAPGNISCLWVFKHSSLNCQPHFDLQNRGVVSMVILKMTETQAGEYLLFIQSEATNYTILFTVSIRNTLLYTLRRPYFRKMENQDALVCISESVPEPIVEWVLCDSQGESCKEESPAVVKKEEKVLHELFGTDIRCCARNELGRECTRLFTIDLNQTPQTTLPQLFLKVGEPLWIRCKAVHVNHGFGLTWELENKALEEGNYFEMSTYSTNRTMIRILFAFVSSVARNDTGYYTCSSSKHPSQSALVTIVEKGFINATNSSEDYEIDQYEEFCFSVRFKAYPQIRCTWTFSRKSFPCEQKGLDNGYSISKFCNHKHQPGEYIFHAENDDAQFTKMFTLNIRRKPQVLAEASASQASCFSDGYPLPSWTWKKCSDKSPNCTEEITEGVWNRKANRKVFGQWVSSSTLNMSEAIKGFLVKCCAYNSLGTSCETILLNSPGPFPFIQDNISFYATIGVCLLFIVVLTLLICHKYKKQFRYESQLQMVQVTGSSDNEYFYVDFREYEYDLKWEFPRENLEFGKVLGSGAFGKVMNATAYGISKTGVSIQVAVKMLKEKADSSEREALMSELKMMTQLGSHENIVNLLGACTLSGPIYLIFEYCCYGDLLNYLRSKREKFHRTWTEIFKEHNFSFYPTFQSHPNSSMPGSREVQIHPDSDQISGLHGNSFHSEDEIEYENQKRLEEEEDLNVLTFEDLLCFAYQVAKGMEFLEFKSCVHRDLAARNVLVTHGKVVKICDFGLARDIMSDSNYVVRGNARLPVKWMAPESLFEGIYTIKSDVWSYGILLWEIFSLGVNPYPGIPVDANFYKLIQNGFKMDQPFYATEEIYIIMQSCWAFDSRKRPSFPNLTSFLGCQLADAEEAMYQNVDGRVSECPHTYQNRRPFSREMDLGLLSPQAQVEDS

[3] = test system: Receptor-type tyrosine-protein kinase FLT3 (Homo sapiens), P36888 [UNDEFINED MUTATION]; assay: Inhibition of FLT3 ITD mutant in human MV4-11 cells assessed as cell growth inhibition after 48 hrs by CellTiter-Glo assay; assay type: cell-based
[4] = test system: Receptor-type tyrosine-protein kinase FLT3 (Homo sapiens), P36888 [UNDEFINED MUTATION]; assay: Inhibition of FLT3 ITD mutant (unknown origin) expressed in mouse BAF3 cells assessed as cell growth inhibition after 48 hrs by CellTiter-Glo assay; assay type: cell-based
[5] = test system: Receptor-type tyrosine-protein kinase FLT3 (Homo sapiens), P36888 [UNDEFINED MUTATION]; assay: Inhibition of FLT3 ITD mutant in human MOLM14 cells assessed as cell growth inhibition after 48 hrs by CellTiter-Glo assay; assay type: cell-based; conditions: MOLM-14
[6] = test system: Receptor-type tyrosine-protein kinase FLT3 (Homo sapiens), P36888 [UNDEFINED MUTATION]; assay: Inhibition of FLT3 ITD F691L mutant (unknown origin) expressed in mouse BAF3 cells assessed as cell growth inhibition after 48 hrs by CellTiter-Glo assay; assay type: cell-based
[7] = test system: Receptor-type tyrosine-protein kinase FLT3 (Homo sapiens), P36888 [UNDEFINED MUTATION]; assay: Inhibition of FLT3 ITD D835V mutant (unknown origin) expressed in mouse BAF3 cells assessed as cell growth inhibition after 48 hrs by CellTiter-Glo assay; assay type: cell-based

| Structure (SMILES) | inhibition [1] [%] | IC50 [2] [nM] | other results |
| --- | --- | --- | --- |
| COc1ccc(-c2ccn3c(-c4ccc(F)cc4)cnc3c2)cc1 | 98.6 | 78 |  |
| c1coc(-c2ccn3ccnc3c2)c1 | 67.1 |  |  |
| Fc1ccc(-c2cnc3cc(-c4ccccc4)ccn23)cc1 | 98.8 | 16 | GI50 [3]: 706 nM; GI50 [4]: 333 nM; GI50 [5]: 513 nM |
| c1ccn2ccnc2c1 | 14.6 |  |  |
| N#Cc1cc(-c2cnc3cc(-c4cccs4)ccn23)ccc1F | 29.7 |  |  |
| COc1ccc(-c2ccn3c(-c4ccc(F)c(C#N)c4)cnc3c2)cc1 | 81.4 |  |  |
| COc1ccc(-c2ccn3c(-c4ccc(CC#N)cc4)cnc3c2)cc1 | 91 | 430 |  |
| N#CCc1ccc(-c2cnc3cc(-c4ccccc4)ccn23)cc1 | 96.4 | 550 |  |
| COc1ccc(-c2ccn3ccnc3c2)cc1 | 33.9 |  |  |
| c1ccc(-c2ccn3ccnc3c2)cc1 | 0 |  |  |
| N#Cc1cc(-c2cnc3cc(-c4ccccc4)ccn23)ccc1F | 94.1 | 230 |  |
| Fc1ccc(-c2cnc3cc(-c4ccco4)ccn23)cc1 | 99.3 | 41 | GI50 [3]: 830 nM; GI50 [6]: > 1000 nM; GI50 [4]: 484 nM; GI50 [7]: > 1000 nM; GI50 [5]: 712 nM |
| N#Cc1cc(-c2cnc3cc(-c4ccco4)ccn23)ccc1F | 98.7 | 470 |  |
| c1csc(-c2ccn3ccnc3c2)c1 | 79.8 |  |  |
| COc1ccc(-c2ccn3c(-c4ccc(C)cc4)cnc3c2)cc1 | 91.4 | 440 |  |
| Cc1ccc(-c2cnc3ccccn23)cc1 | 77 |  |  |
| Fc1ccc(-c2cnc3ccccn23)cc1 | 94.8 | 480 |  |
| N#Cc1cc(-c2cnc3ccccn23)ccc1F | 61.3 |  |  |
| N#CCc1ccc(-c2cnc3cc(-c4ccco4)ccn23)cc1 | 97.8 | 190 |  |
| N#CCc1ccc(-c2cnc3cc(-c4cccs4)ccn23)cc1 | 98 | 51 |  |
| Clc1ccn2ccnc2c1 | 23.8 |  |  |
| N#CCc1ccc(-c2cnc3ccccn23)cc1 | 20 |  |  |
| Cc1ccc(-c2cnc3cc(-c4ccccc4)ccn23)cc1 | 94.1 | 300 |  |
| Cc1ccc(-c2cnc3cc(-c4ccco4)ccn23)cc1 | 95.5 | 160 |  |
| Cc1ccc(-c2cnc3cc(-c4cccs4)ccn23)cc1 | 89.7 |  |  |
